Data on 20 molecules can be found in PubChem BioAssay AID264 (DTP/NCI, 2004).

The structures appear in SMILES notation. Several values for one entry are separate records, joined by “and”; a condition that tells them apart may be missing. Identical values can stand only once. Records with an inconclusive call do not appear. Numbered stars: 1 amine (or outer) side, 2 acyl side, 3 side chain; on linkers, the order of the positions; unused ones are H or OH. Bridge positions count the residues as written; N and C are the ends. Square brackets hold non-standard residues; d marks the D form. Peptide text beside a SMILES is read from it. I, II: the chains in the order shown. Actinocin(1to9) = Cc1c2oc3c(C)ccc(C(=O)[*:2])c3nc-2c(C(=O)[*:1])c(N)c1=O; NMeV = CN[CH](C(=O)O)C(C)C; Aze = O=C(O)[CH]1CCN1; Sar = CNCC(=O)O

This experiment relates to nude mice, LX-1 lung xenograft intrarenal, tumor weight T/C. The experiment can be described thus: NCI In Vivo Anticancer Drug Screen. Data for tumor model Human Lung LX-1 Xenograft (intrarenal inoculation) in NU/NU Swiss (nude) mice. Conditions: endpoint: mean tumor weight change, higher = larger tumour. A digest of the protocol: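 Tumor-bearing mice receive test compound or vehicle; tumor size is then measured in each group. The treated value is divided by the vehicle value to give T/C.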
In general terms: In xenograft studies the graft and the host belong to different species.

The mark [1] stands for this setting: dose: 400.0 mg/kg/injection, schedule: Q01DX010 (sc), vehicle: saline with Tween-80.
Setting [2] is: dose: 150.0 mg/kg/injection, schedule: Q04DX003 (sc), vehicle: saline with Tween-80.
Where [3] appears, read: dose: 300.0 mg/kg/injection, schedule: Q04DX003 (sc), vehicle: saline with Tween-80.
The mark [4] stands for this setting: dose: 600.0 mg/kg/injection, schedule: Q04DX003 (sc), vehicle: saline with Tween-80.
The mark [5] stands for this setting: dose: 75.0 mg/kg/injection, schedule: Q04DX003 (sc), vehicle: saline with Tween-80.
[6] abbreviates: dose: 75.0 mg/kg/injection, schedule: Q04DX003 (sc), vehicle: saline.
Where [7] appears, read: dose: 300.0 mg/kg/injection, schedule: Q04DX003 (sc), vehicle: saline.
Where [8] appears, read: dose: 1.0 mg/kg/injection, schedule: Q04DX003 (sc), vehicle: saline + alcohol.

`Cc1ccccc1SSc1ccccc1C`: the T/C (dose: 200.0 mg/kg/injection, schedule: Q01DX010 (sc), vehicle: saline with Tween-80) was 268 % of control and the T/C under setting [1] is 99 % of control.

For the molecule `Cc1oc2c(C)c3oc(=O)cc(C)c3cc2c1CCl`, the T/C runs as follows: under setting [2], 82 % of control; under setting [3], 95 % of control; under setting [4], 60 % of control; (dose: 1200.0 mg/kg/injection, schedule: Q04DX003 (sc), vehicle: saline with Tween-80) 76 % of control.

Consider `CC(=O)OCC1OC(n2cc(CBr)nn2)C(OC(C)=O)C(OC(C)=O)C1OC(C)=O` (centres undefined), for which the T/C is, setting by setting: (dose: 50.0 mg/kg/injection, schedule: Q01DX010 (sc), vehicle: saline with Tween-80) 177 % of control; (dose: 100.0 mg/kg/injection, schedule: Q01DX010 (sc), vehicle: saline with Tween-80) 101 % of control; under setting [1], 46 % of control.

Take `CCCCCCCCCCCCSC1=C(Cl)C(=O)C(OC)=C(OC)C1=O`: the T/C reads like this: under setting [5], 71 % of control; under setting [2], 81 % of control.

Consider `C(=N/NC1=NCCN1)/c1c2ccccc2c(/C=N\NC2=NCCN2)c2ccccc12`, for which the T/C runs as follows: (dose: 18.75 mg/kg/injection, schedule: Q04DX003 (sc), vehicle: suspension in saline) 117 % of control; (dose: 75.0 mg/kg/injection, schedule: Q04DX003 (sc), vehicle: suspension in saline) 72 % of control; (dose: 150.0 mg/kg/injection, schedule: Q04DX003 (sc), vehicle: suspension in saline) 49 % of control.

For the molecule `[CH3][Sn]([CH3])([Cl])[S]CCN`, the T/C is 62 % of control (dose: 18.75 mg/kg/injection, schedule: Q04DX003 (sc), vehicle: saline); 95 % of control (dose: 37.5 mg/kg/injection, schedule: Q04DX003 (sc), vehicle: saline); 82 % of control under setting [6].

For `CN(C)CC(Cl)CCl` (centres undefined), the T/C under setting [7] was 49 % of control.

Take `BrC1CC(Br)c2c1c1c(c3c2C(Br)CC3Br)C(Br)CC1Br` (centres undefined): the T/C reads like this: (dose: 300.0 mg/kg/injection, schedule: Q04DX003 (sc), vehicle: water) 46 % of control; (dose: 600.0 mg/kg/injection, schedule: Q04DX003 (sc), vehicle: water) 43 % of control; (dose: 1200.0 mg/kg/injection, schedule: Q04DX003 (sc), vehicle: water) 29 % of control; (dose: 2400.0 mg/kg/injection, schedule: Q04DX003 (sc), vehicle: water) 29 % of control.

Take `CC(=O)OCC1OC([S-])C(OC(C)=O)C(OC(C)=O)C1OC(C)=O.CC[PH+](CC)CC.CC[PH+](CC)CC.[Au].[Au]` (centres undefined): the T/C was 110 % of control (dose: 3.12 mg/kg/injection, schedule: Q04DX003 (sc), vehicle: Klucel (hydroxypropylcellulose) (HPC)); 88 % of control (dose: 6.25 mg/kg/injection, schedule: Q04DX003 (sc), vehicle: Klucel (hydroxypropylcellulose) (HPC)); 75 % of control (dose: 12.5 mg/kg/injection, schedule: Q04DX003 (sc), vehicle: Klucel (hydroxypropylcellulose) (HPC)).

In the case of `COC1=C2C[C@@H](C)C[C@@H](OC)[C@@H](O)[C@H](C)/C=C(\C)[C@@H](OC(N)=O)[C@H](OC)/C=C\C=C(/C)C(=O)NC(=CC1=O)C2=O`, the T/C (dose: 1.0 mg/kg/injection, schedule: Q04DX003 (sc), vehicle: saline) is 77 % of control; the T/C (dose: 2.0 mg/kg/injection, schedule: Q04DX003 (sc), vehicle: saline) is 57 % of control; the T/C (dose: 4.0 mg/kg/injection, schedule: Q04DX003 (sc), vehicle: saline) is 104 % of control; the T/C (dose: 8.0 mg/kg/injection, schedule: Q04DX003 (sc), vehicle: saline) is 81 % of control.

Regarding `COC1/C=C/C=C(/C)Cc2cc(O)c(Cl)c(c2)N(C)C(=O)CC(OC(=O)C(C)C)C2(C)OC2C(C)C2CC1(O)NC(=O)O2` (centres undefined), the T/C reads like this: under setting [8], 81 % of control; (dose: 2.0 mg/kg/injection, schedule: Q04DX003 (sc), vehicle: saline + alcohol) 67 % of control; (dose: 4.0 mg/kg/injection, schedule: Q04DX003 (sc), vehicle: saline + alcohol) 58 % of control.

As for `Cc1c2oc3c(C)ccc(C(=O)NC4C(=O)NC(C(C)C)C(=O)N5CCCC5C(=O)N(C)CC(=O)N(C)C(C(C)C)C(=O)OC4C)c3nc-2c(C(=O)NC2C(=O)NC(C(C)C)C(=O)N3CCC3C(=O)N(C)CC(=O)N(C)C(C(C)C)C(=O)OC2C)c(N)c1=O` (centres undefined) (I: TV[Aze][Sar][NMeV] / II: TVP[Sar][NMeV]; ester I:1-I:C, II:1-II:C; linker I:N-II:N via Actinocin(1to9); configuration not given here), the T/C runs as follows: (dose: 0.25 mg/kg/injection, schedule: Q04DX003 (sc), vehicle: saline + alcohol) 58 % of control; (dose: 0.5 mg/kg/injection, schedule: Q04DX003 (sc), vehicle: saline + alcohol) 44 % of control; under setting [8], 29 % of control.

`C=C/C(C)=C/[C@H](C)C(=O)C[C@H](O)CC1CC(=O)NC(=O)C1`: the T/C was 111 % of control under setting [5], 61 % of control under setting [2], 69 % of control under setting [3] and 70 % of control under setting [4].

On to `NC(CSC(c1ccccc1)(c1ccccc1)c1ccccc1)C(=O)O` (centres undefined), for which the T/C was 86 % of control (dose: 25.0 mg/kg/injection, schedule: Q01DX010 (sc), vehicle: Klucel (hydroxypropylcellulose) (HPC)) and 155 % of control (dose: 50.0 mg/kg/injection, schedule: Q01DX010 (sc), vehicle: Klucel (hydroxypropylcellulose) (HPC)).

As for `OCC1OC(n2cnc3c(=S)nc[nH]c32)C(O)C1O` (centres undefined), the T/C is 86 % of control (dose: 100.0 mg/kg/injection, schedule: Q01DX010 (sc), vehicle: saline); 75 % of control under setting [7]; 99 % of control (dose: 600.0 mg/kg/injection, schedule: Q04DX003 (sc), vehicle: saline); 124 % of control (dose: 1200.0 mg/kg/injection, schedule: Q04DX003 (sc), vehicle: saline); 65 % of control (dose: 2400.0 mg/kg/injection, schedule: Q04DX003 (sc), vehicle: saline).

In the case of `C[C@H](CCC[C@H](C)OS(=O)(=O)c1ccccc1)OS(=O)(=O)c1ccccc1`, the T/C under setting [2] was 87 % of control and the T/C under setting [3] was 45 % of control.

Consider `CCCCCCCCCCCCCCCCP(=O)(OCCOCCCCCC)OCCOCCCCCC`, for which the T/C under setting [6] was 114 % of control; the T/C (dose: 150.0 mg/kg/injection, schedule: Q04DX003 (sc), vehicle: saline) is 91 % of control; the T/C under setting [7] was 92 % of control.

Consider `NC(=O)c1cn(C2OC(CO)C(O)C2O)c2ncnc(N)c12` (centres undefined), for which the T/C is, setting by setting: (dose: 0.5 mg/kg/injection, schedule: Q01DX010 (sc), vehicle: saline) 74 % of control; (dose: 1.0 mg/kg/injection, schedule: Q01DX010 (sc), vehicle: saline) 88 % of control; (dose: 2.0 mg/kg/injection, schedule: Q01DX010 (sc), vehicle: saline) 27 % of control.

For the molecule `C=CC(C)(C)n1cc(C2=C(O)C(=O)C(c3cn(C(C)(C)C=C)c4ccccc34)=C(O)C2=O)c2ccccc21`, the T/C is 63 % of control (dose: 50.0 mg/kg/injection, schedule: Q04DX003 (sc), vehicle: Klucel (hydroxypropylcellulose) (HPC)); 71 % of control (dose: 100.0 mg/kg/injection, schedule: Q04DX003 (sc), vehicle: Klucel (hydroxypropylcellulose) (HPC)); 124 % of control (dose: 200.0 mg/kg/injection, schedule: Q04DX003 (sc), vehicle: Klucel (hydroxypropylcellulose) (HPC)); 83 % of control (dose: 400.0 mg/kg/injection, schedule: Q04DX003 (sc), vehicle: Klucel (hydroxypropylcellulose) (HPC)).

Regarding `C/C=C/C=C/c1cc2cc3c(c(O)c2c(=O)[nH]1)C1(CC3)C(O)=c2c(=O)c3c(=O)cc(OC)c(=O)c=3c(=O)c2=C1O` (centres undefined), the T/C is 221 % of control (dose: 0.5 mg/kg/injection, schedule: Q01DX010 (sc), vehicle: DMSO); 162 % of control (dose: 1.0 mg/kg/injection, schedule: Q01DX010 (sc), vehicle: DMSO); 92 % of control and 104 % of control (dose: 2.0 mg/kg/injection, schedule: Q01DX010 (sc), vehicle: DMSO); 103 % of control and 111 % of control (dose: 4.0 mg/kg/injection, schedule: Q01DX010 (sc), vehicle: DMSO); 106 % of control (dose: 8.0 mg/kg/injection, schedule: Q01DX010 (sc), vehicle: DMSO); 86 % of control (dose: 16.0 mg/kg/injection, schedule: Q01DX010 (sc), vehicle: DMSO).
